Read-outs that look alike come from different tables or passages of the source.
Columns and labels:
SARS-CoV-2 [1] = assay: Inhibitory activity of cytopathic effect (CPE) in Vero E6/TMPRSS2 cells; assay type: cell-based
SARS-CoV-2 3CL protease = SARS-CoV-2 3CL protease (Severe acute respiratory syndrome coronavirus 2, UniProt P0DTD1); assay: Inhibitory activity test against SARS-CoV-2 3CL proteases; assay type: biochemical
SARS-CoV-2 [2] = assay: Inhibitory activity of cytopathic effect (CPE) in HEK293T/ACE2-TMPRSS2 cells; assay type: cell-based; conditions: Severe acute respiratory syndrome coronavirus 2, HEK-293T, 72 h, HEK293T/ACE2-TMPRSS2 cells
[3] = Severe acute respiratory syndrome coronavirus 2, VeroE6/TMPRSS2, 72 h, 50% SARS-CoV-2 infected cell death inhibitory concentration, CellTiter-Glo 2.0 after 3 days culture
[4] = read-out: IC50 (50% SARS-CoV-2 3CL protease inhibitory concentration)
[5] = Severe acute respiratory syndrome coronavirus 2, VeroE6/TMPRSS2, 50% SARS-CoV-2 infected cell death inhibitory concentration, class symbols
[6] = cultured 3 days, CellTiter-Glo 2.0 luminescence, read-out: EC50 (50% SARS-CoV-2 infected cell death inhibitory concentration)
[7] = IC50 (50% SARS-CoV-2 3CL protease inhibitory concentration)

| Structure (SMILES) | IC50 (SARS-CoV-2 3CL protease; [4]) [µM] | EC50 (SARS-CoV-2 [1]; [5]) [µM] | EC50 (SARS-CoV-2 [2]; [6]) [µM] | further results |
| --- | --- | --- | --- | --- |
| Cn1cnc(Cn2c(=O)c3c(Cl)cc(-c4cc5c(cc4Cl)NC(=O)C5)cc3n(Cc3cc(F)c(F)c(F)c3)c2=O)n1 [Compound I-0003] | 0.0086 |  |  | EC50 (SARS-CoV-2 [1]; [3]): 0.692 µM |
| Cc1cncc(-n2c(=O)c3c(Cl)cc(-c4cc5c(cc4Cl)NC(=O)C5)cc3n(Cc3ccc(F)c(C#N)c3)c2=O)c1 [Compound I-0004] | 0.0099 |  |  | EC50 (SARS-CoV-2 [1]; [3]): 1.16 µM |
| Cc1cncc(-n2c(=O)c3c(Cl)cc(-c4cc(C(N)=O)ccc4Cl)cc3n(Cc3cc(F)c(F)c(F)c3)c2=O)c1 [Compound I-0007] | 0.019 |  |  | EC50 (SARS-CoV-2 [1]; [3]): 1.14 µM |
| Cc1cncc(-n2c(=O)c3c(Cl)cc(-c4cc(C(N)=O)ccc4Cl)cc3n(Cc3ccc(F)c(C#N)c3)c2=O)c1 [Compound I-0010] | < 0.1 | 1 to 10 |  |  |
| Cc1cncc(-n2c(=O)c3c(Cl)cc(-c4cc5cn[nH]c5cc4Cl)cc3n(Cc3ccc(F)c(C#N)c3)c2=O)c1 [Compound I-0011] | < 0.1 | < 1 |  |  |
| Cc1cncc(-n2c(=O)c3c(Cl)cc(-c4cc(C#N)ccc4Cl)cc3n(Cc3ccc(F)c(C#N)c3)c2=O)c1 [Compound I-0013] | < 0.1 | < 1 |  |  |
| Cn1cnc(Cn2c(=O)c3c(Cl)cc(-c4cc5cn[nH]c5cc4Cl)cc3n(Cc3cc(F)c(F)c(F)c3)c2=O)n1 [Compound I-0015] | < 0.1 | < 1 |  |  |
| COc1cc(-c2cc(C#N)ccc2Cl)cc2c1c(=O)n(-c1cncc(C)c1)c(=O)n2Cc1ccc(F)c(C#N)c1 [Compound I-0027] | < 0.1 | < 1 |  |  |
| COc1cc(-c2cc3c(cc2Cl)NC(=O)C3)cc2c1c(=O)n(-c1cncc(Cl)c1)c(=O)n2Cc1ccc(F)c(C#N)c1 [Compound I-0028] | 0.0075 |  |  | EC50 (SARS-CoV-2 [1]; [3]): 10.1 µM |
| COc1cc(-c2cc(C(N)=O)ccc2Cl)cc2c1c(=O)n(-c1cncc(C)c1)c(=O)n2Cc1ccc(F)c(C#N)c1 [Compound I-0029] | 0.0078 |  |  | EC50 (SARS-CoV-2 [1]; [3]): 49.8 µM |
| COc1cc(-c2cc(CO)ccc2Cl)cc2c1c(=O)n(-c1cncc(C)c1)c(=O)n2Cc1ccc(F)c(C#N)c1 [Compound I-0031] | < 0.1 | < 1 |  |  |
| COc1cc(-c2cc(C#N)ccc2Cl)cc2c1c(=O)n(-c1cncc(Cl)c1)c(=O)n2Cc1ccc(F)c(C#N)c1 [Compound I-0033] | 0.013 |  |  | EC50 (SARS-CoV-2 [1]; [3]): 0.217 µM |
| COc1cc(-c2cc(C(N)=O)ccc2Cl)cc2c1c(=O)n(Cc1ncn(C)n1)c(=O)n2Cc1cc(F)c(F)c(F)c1 [Compound I-0034] | < 0.1 | 1 to 10 |  |  |
| COc1cc(-c2cc(C#N)ccc2Cl)cc2c1c(=O)n(Cc1ncn(C)n1)c(=O)n2Cc1cc(F)c(F)c(F)c1 [Compound I-0035] | 0.025 |  |  | EC50 (SARS-CoV-2 [1]; [3]): 0.363 µM |
| COc1cc(-c2cc(CO)ccc2Cl)cc2c1c(=O)n(Cc1ncn(C)n1)c(=O)n2Cc1cc(F)c(F)c(F)c1 [Compound I-0036] | < 0.1 | 1 to 10 |  |  |
| COc1cc(-c2cc3c(cc2Cl)NC(=O)C3)cc2c1c(=O)n(Cc1ncn(C)n1)c(=O)n2Cc1cc(F)c(F)c(F)c1F [Compound I-0047] | < 0.1 | 1 to 10 |  |  |
| COc1cc(-c2cc3cn[nH]c3cc2Cl)cc2c1c(=O)n(Cc1ncn(C)n1)c(=O)n2Cc1cc(F)c(F)c(F)c1F [Compound I-0048] | 0.011 |  |  | EC50 (SARS-CoV-2 [1]; [3]): 0.537 µM |
| Cc1cncc(-n2c(=O)c3c(F)cc(-c4cc(C#N)ccc4Cl)cc3n(Cc3cc(F)c(F)c(F)c3)c2=O)c1 [Compound I-0049] | < 0.1 | < 1 |  |  |
| Cc1cncc(-n2c(=O)c3c(F)cc(-c4cc(C(N)=O)ccc4Cl)cc3n(Cc3ccc(F)c(C#N)c3)c2=O)c1 [Compound I-0051] | < 0.1 | 1 to 10 |  |  |
| Cc1cncc(-n2c(=O)c3c(F)cc(-c4cc(CO)ccc4Cl)cc3n(Cc3cc(F)c(F)c(F)c3)c2=O)c1 [Compound I-0052] | < 0.1 | < 1 |  |  |
| COc1cc(-c2cc(C#N)ccc2Cl)cc2c1c(=O)n(Cc1ncn(C)n1)c(=O)n2Cc1cc(F)c(F)c(F)c1F [Compound I-0053] | 0.03 |  |  | EC50 (SARS-CoV-2 [1]; [3]): 0.497 µM |
| Cc1cncc(-n2c(=O)c3c(F)cc(-c4cc(CO)ccc4Cl)cc3n(Cc3ccc(F)c(C#N)c3)c2=O)c1 [Compound I-0054] | < 0.1 | < 1 |  |  |

| Structure (SMILES) | IC50 (SARS-CoV-2 3CL protease; [4]) [µM] | EC50 (SARS-CoV-2 [1]; [5]) [µM] | EC50 (SARS-CoV-2 [2]; [6]) [µM] | further results |
| --- | --- | --- | --- | --- |
| Cc1cncc(-n2c(=O)c3c(F)cc(-c4cc(C(N)=O)ccc4Cl)cc3n(Cc3cc(F)c(F)cc3F)c2=O)c1 [Compound I-0055] | < 0.1 | < 1 |  |  |
| COc1cc(-c2cc3c(cc2Cl)NC(=O)C3)cc2c1c(=O)n(-c1cncc(C)c1)c(=O)n2Cc1cc(F)c(F)c(F)c1 [Compound I-0058] | 0.0015 |  |  | EC50 (SARS-CoV-2 [1]; [3]): 0.194 µM |
| COc1nc(NC2CCCC2)cc2c1c(=O)n(-c1cnc3cc(F)ccn13)c(=O)n2-c1ccc(F)c(Cl)c1 [Compound I-1046] |  |  | < 0.1 | IC50 (SARS-CoV-2 3CL protease; [7]): < 0.1 µM |
| C=Cc1cc2c(c(OC)n1)c(=O)n(-c1cnc3cc(F)ccn13)c(=O)n2-c1ccc(F)c(F)c1 [Compound I-1047] | < 0.1 |  | 0.1 to 1 |  |
| O=c1c2c(=O)n(-c3cnc4cc(F)ccn34)c(=O)n(-c3ccc(F)c(Cl)c3)c2cc2n1CC[C@@H]1CCCCN21 [Compound I-1048] | 0.023 |  |  | EC50 (SARS-CoV-2 [2]; 50% SARS-CoV-2 infected cell death inhibitory concentration, CellTiter-Glo 2.0 after 3 days culture, read-out: EC50): 0.436 µM |
| COCCNc1cc2c(c(OC)n1)c(=O)n(-c1cnc3cc(F)ccn13)c(=O)n2-c1ccc(F)c(Cl)c1 [Compound I-1049] |  |  | < 0.1 | IC50 (SARS-CoV-2 3CL protease; [7]): < 0.1 µM |
| COC[C@H]1CCCN1c1cc2c(c(OC)n1)c(=O)n(-c1cnc3cc(F)ccn13)c(=O)n2-c1ccc(F)c(Cl)c1 [Compound I-1050] | < 0.1 |  | < 0.1 |  |
| O=c1c2c(=O)n(-c3cnc4cc(F)ccn34)c(=O)n(-c3ccc(F)c(Cl)c3)c2cc2n1CC[C@H]1CCCN21 [Compound I-1051] | < 0.1 |  | 0.1 to 1 |  |
| COc1nc(N2C[C@@H](F)[C@@H](OC)C2)cc2c1c(=O)n(-c1cnc3cc(F)ccn13)c(=O)n2-c1ccc(F)c(Cl)c1 [Compound I-1052] | < 0.1 |  | < 0.1 |  |
| COc1nc(NC2CCC2)cc2c1c(=O)n(-c1cnc3cc(F)ccn13)c(=O)n2-c1ccc(F)c(Cl)c1 [Compound I-1053] | < 0.1 |  | < 0.1 |  |
| COc1nc(N2CCOC[C@H]2C)cc2c1c(=O)n(-c1cnc3cc(F)ccn13)c(=O)n2-c1ccc(F)c(Cl)c1 [Compound I-1054] | < 0.1 |  | < 0.1 |  |
| COc1nc(N2CCC(N(C)C)C2)cc2c1c(=O)n(-c1cnc3cc(F)ccn13)c(=O)n2-c1ccc(F)c(Cl)c1 (centres unmarked) [Compound I-1055] | < 0.1 |  | < 0.1 |  |
| COc1nc(N2CCC(O)(C(F)F)C2)cc2c1c(=O)n(-c1cnc3cc(F)ccn13)c(=O)n2-c1ccc(F)c(Cl)c1 (centres unmarked) [Compound I-1056] | < 0.1 |  | < 0.1 |  |
| COc1nc(N2CCC(F)(F)C2)cc2c1c(=O)n(-c1cncc(C#N)c1)c(=O)n2-c1ccc(F)c(F)c1 [Compound I-1057] | < 0.1 |  | < 0.1 |  |
| CCN(CC)c1cc2c(c(OC)n1)c(=O)n(-c1cnc3cc(F)ccn13)c(=O)n2-c1ccc(F)c(Cl)c1 [Compound I-1058] | < 0.1 |  | < 0.1 |  |
| COc1nc(N2CC[C@@H](C(C)(C)O)C2)cc2c1c(=O)n(-c1cncc(Cl)c1)c(=O)n2-c1ccc(F)c(Cl)c1 [Compound I-1059] | < 0.1 |  | < 0.1 |  |
| COc1nc(N2CCC3(CCOC3)C2)cc2c1c(=O)n(-c1cnc3cc(F)ccn13)c(=O)n2-c1ccc(F)c(Cl)c1 (centres unmarked) [Compound I-1060] | < 0.1 |  | < 0.1 |  |
| COC[C@@H](C)Nc1cc2c(c(OC)n1)c(=O)n(-c1cnc3cc(F)ccn13)c(=O)n2-c1ccc(F)c(Cl)c1 [Compound I-1061] | < 0.1 |  | < 0.1 |  |
| COCCCc1cc2c(c(OC)n1)c(=O)n(-c1cnc3cc(F)ccn13)c(=O)n2-c1ccc(F)c(Cl)c1 [Compound I-1062] | < 0.1 |  | < 0.1 |  |
| O=c1c2c(=O)n(-c3cnc4cc(F)ccn34)c(=O)n(-c3ccc(F)c(Cl)c3)c2cc2n1CC[C@H]1CCCCN21 [Compound I-1063] | < 0.1 |  | 0.1 to 1 |  |
| COc1nc(N2CCC(O)(C(F)(F)F)C2)cc2c1c(=O)n(-c1cncc(Cl)c1)c(=O)n2-c1ccc(F)c(Cl)c1 (centres unmarked) [Compound I-1064] | < 0.1 |  | < 0.1 |  |

Reference: patent US20240400560A1, “BICYCLIC HETEROCYCLIC DERIVATIVE HAVING VIRAL GROWTH INHIBITORY ACTIVITY AND PHARMACEUTICAL COMPOSITION CONTAINING SAME” (Shionogi & Co., Ltd., priority 2021, published 2024)
